Key:
[1] = biological target: T1, AMPK-s4 (γ subunit- K148A) (Rattus norvegicus, UniProt P54645+P80385, K148A); assay: SPR analysis, AMPK mutant s4; type: binding
T1 construct: His (N); made in house
Experimental: Mammalian AMPK subunits (His-α1, β1, and γ1) were cloned into a pET-3d vector, and protein expression and purification were similar to the literature.
SPR analysis was performed with a Biacore T200 instrument (GE Healthcare). Firstly, the purred His-tagged AMPK containing α1β1γ1 protein was captured onto an activated carboxymethylated 5 (CM5) chip using amine coupling to levels ranging from 4000 RU to 6000 RU. Secondly, GENI was dissolved in PBS-P buffer solution (0.05% (v/v) Tween 20 and PBS), and the concentration of GENI was 64 μM. Thirdly, the solution of GENI was diluted to 32 μM, 16 μM, 8 μM, 4 μM, 2 μM, 1 μM and 0.5 μM with PBS-P buffer solution. The sample was filtered by pumping through a […] membrane. A gradient concentration of GENI was injected at a flow rate of 30 μL/min in a running buffer (0.05% (v/v) Tween 20 and PBS). The data were analyzed with Biacore evaluation software (T200 version 2.0) and fitted to the 1:1 Langmuir binding model, and the kinetic parameters were derived.
The non-covalent interaction between drugs and proteins is an important way to exert drug efficacy, and its mode of action and binding affinity usually determine the utilization and biological activity of drugs. AMPK is a heterotrimer complex consisting of an α subunit containing the kinase domain and two regulatory subunits (β- and γ-). […]

[2] = tested on: AMPK; assay: CETSA with cerebral cortex and hippocampus protein of mice; type: binding; settings: cerebral cortex and hippocampus of mice brains
Experimental: In a 60 mm dish containing 5 mL of DMEM, 2 × 10^6 cells were added and incubated for 24 h. In each plate, 10 μM GENI was added and incubated for 2 h. Cells were harvested and heated at a temperature ranging from 60 °C to 80 °C for PC12 cell samples. We obtained a certain amount of cerebral cortex and hippocampus samples, which were added with PBS and ground. After centrifugation, the supernatant was used as a sample, and we measured the protein concentration with a BCA kit (CoWin Biotech Co., Ltd., Taizhou, Jiangsu, China). The protein of the cerebral cortex or hippocampus was incubated with 10 μM GENI at 37 °C for 2 h and heated from 65 °C to 100 °C for the cerebral cortex sample but 43 °C to 67 °C and 65 °C to 100 °C for the hippocampus sample. Equal volumes of supernatant heated at each temperature point for the control and treatment groups were used for Western blot analysis with the antibody for specific proteins.

[3] = tested on: PC12 cells; assay: RT-PCR analysis of gene expression in PC12 cells; type: cell-based, Rat; settings: PC12 cells under H2O2 induction
Experimental: RT-PCR analysis was performed as described in the material and methods section in Supplementary Information.
Supplementary information […]
1.1. Real-time polymerase chain reaction (RT-PCR) analysis
PC12 cells (2 × 106) were seeded in 60 mm dishes and treated with RES (10 μM) or GENI (3 or 10μM) for 24h. Total RNA was extracted with TRIzol Reagent (Beijing Cowin Biotech Company, Beijing, China). RNA content was determined using an Eppendorf Biophotometer Plus (Eppendorf Company, Hamburg, Germany). Transcription was performed using 5 μg of total RNA, Oligo (dT)20 primer and reverse transcriptase (Beijing Cowin Biotech Company, Beijing, China). Transcript levels were quantified by real-time PCR (AB SCIEX, Massachusetts, USA) and SYBR Premix EX Taq™ (Takara, Otsu, Japan). Primers (Sangon Biotech Co. Ltd., Shanghai, China) used in this study are given in Supplementary Table S3. The thermocycling parameters for PC12 cells were as follows: SOD1 and SOD2: 95 ℃ for 2 min, then 40 cycles, 54 ℃ for 35 seconds; Bcl-x1 and Nrf2: 95 ℃ for 2 min, then 40 cycles, 95 ℃ for 15 seconds, 60 ℃ […]
for 15 seconds, 68 ℃ for 20 seconds. All results were normalized to GAPDH RNA levels, and relative mRNA transcript levels were calculated using the ΔΔCt formula. […]
For NO content evaluation, firstly, the NO assay kit was removed, and Griess Reagents I and II were warmed to room temperature. The standard substance was diluted with cell culture solution to 0, 1, 2, 5, 10, 20, 40, 60 and 100 μM. Secondly, 50 μL of standard reagent and the diluted sample were added into a 96-well plate. […]
For IL-6 content evaluation, we prepared samples, standards and biotinylated antibody working […]
15.625 and 0 pg/mL for use, and blank holes were set. The 100 μL sample or standard substance of different concentrations was added to the corresponding hole, and about 50 μL of biotinylated antibody working liquid was added to the sample and standard substance hole. The reaction hole was sealed with sealing plate adhesive paper. The working liquid of the enzyme conjugate was prepared 30 min in advance by incubating at room temperature with a 300 rpm micro-oscillator for 120 min. The sample was placed at room temperature away from light, and the board was washed five times after incubation. In addition to the blank holes, 100 μL of enzyme conjugate working liquid was added to each hole, and the reaction holes were sealed with plate adhesive paper. The board was incubated at room temperature with a 300 rpm micro-oscillator for 60 min and then washed five times. […] About 100 μL of termination solution was added to each hole, and we measured the OD450 value immediately after mixing with a microplate reader (BioTek, California, USA).

T1 sequence (P54645 13-559 limits assumed): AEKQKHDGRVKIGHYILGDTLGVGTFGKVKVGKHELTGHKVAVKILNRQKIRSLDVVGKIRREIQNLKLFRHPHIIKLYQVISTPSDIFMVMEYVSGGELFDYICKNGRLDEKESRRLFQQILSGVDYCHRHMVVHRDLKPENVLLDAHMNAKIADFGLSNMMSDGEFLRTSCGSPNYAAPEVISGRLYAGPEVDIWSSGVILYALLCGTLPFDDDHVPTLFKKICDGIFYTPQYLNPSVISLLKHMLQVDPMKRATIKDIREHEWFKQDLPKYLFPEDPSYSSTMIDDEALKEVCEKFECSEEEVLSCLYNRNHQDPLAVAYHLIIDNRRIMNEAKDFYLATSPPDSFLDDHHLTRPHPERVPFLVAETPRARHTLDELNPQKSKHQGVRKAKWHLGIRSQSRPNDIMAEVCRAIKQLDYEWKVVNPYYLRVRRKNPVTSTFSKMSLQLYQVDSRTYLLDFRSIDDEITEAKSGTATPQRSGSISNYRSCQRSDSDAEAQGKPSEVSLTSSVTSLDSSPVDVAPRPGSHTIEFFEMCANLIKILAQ
T1 sequence (P80386 whole entry partner): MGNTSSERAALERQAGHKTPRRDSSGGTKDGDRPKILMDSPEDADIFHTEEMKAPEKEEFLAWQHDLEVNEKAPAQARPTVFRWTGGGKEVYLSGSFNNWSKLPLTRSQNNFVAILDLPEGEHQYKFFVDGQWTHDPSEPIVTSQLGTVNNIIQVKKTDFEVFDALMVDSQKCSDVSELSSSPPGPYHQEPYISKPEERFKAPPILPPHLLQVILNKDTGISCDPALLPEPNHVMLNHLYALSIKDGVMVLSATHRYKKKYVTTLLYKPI
T1 sequence (P80385 whole entry K148A): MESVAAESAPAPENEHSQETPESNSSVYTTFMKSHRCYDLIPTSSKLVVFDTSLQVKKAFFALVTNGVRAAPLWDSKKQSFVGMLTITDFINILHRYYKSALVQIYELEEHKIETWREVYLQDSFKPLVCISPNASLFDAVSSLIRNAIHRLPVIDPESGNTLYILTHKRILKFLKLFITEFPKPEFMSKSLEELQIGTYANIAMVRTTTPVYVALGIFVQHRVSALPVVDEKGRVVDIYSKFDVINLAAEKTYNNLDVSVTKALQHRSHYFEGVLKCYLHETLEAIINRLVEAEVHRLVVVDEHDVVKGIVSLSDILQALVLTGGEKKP

## CC(C)CCOC(=O)C1=CO[C@@H](O[C@@H]2O[C@H](CO)[C@@H](O)[C@H](O)[C@H]2O)C2C(CO)=CCC12 (stereo partly shown) [GENI, Geniposidic 4-isoamyl ester]
[1]; SPR, association rate, read-out: Ka
  kon: 4130 M⁻¹ s⁻¹
[1]; point mutation of K148
  dose-dependent relationship in SPR: dose-dependent relationship was lost
[2]
  stability of AMPK proteins (CETSA): enhanced the stability
[3]
  abundance of Bcl-x1 mRNA: significantly increased
  abundance of Nrf2 mRNA: significantly increased
[3]; GENI 3 or 10 μM 24 h
  gene expression of SOD1: increased
  gene expression of SOD2: increased

Reference: PMC11763059, “GENI as an AMPK Activator Binds α and γ Subunits and Improves the Memory Dysfunction of Alzheimer’s Disease Mouse Models via Autophagy and Neuroprotection” (Antioxidants, 2025)
